According to patent US8993717B2, “Gadd45beta targeting agents” (Imperial Innovations Limited, priority 2009, dated 2015):
Where two headings read alike, the source gives them in different places. Square brackets hold non-standard residues; d marks the D form. Peptide text beside a SMILES is read from it. * marks the point of attachment. Cbz = O=C(OCc1ccccc1)*

How the values were obtained:
[1] = system: sh-MKK7-expressing ARH-77 cells
[2] = molecular target: T1, Gadd45β/MKK7 interaction (Homo sapiens, UniProt O14733); test: ELISA competition assay of biotin-hGadd45β binding to coated GST-MKK7
T1 construct: The GST-fused full-length kinase was coated for 16 h at 4° C., at a concentration of 42 nM; made in house
T1 sequence (O14733 1-419): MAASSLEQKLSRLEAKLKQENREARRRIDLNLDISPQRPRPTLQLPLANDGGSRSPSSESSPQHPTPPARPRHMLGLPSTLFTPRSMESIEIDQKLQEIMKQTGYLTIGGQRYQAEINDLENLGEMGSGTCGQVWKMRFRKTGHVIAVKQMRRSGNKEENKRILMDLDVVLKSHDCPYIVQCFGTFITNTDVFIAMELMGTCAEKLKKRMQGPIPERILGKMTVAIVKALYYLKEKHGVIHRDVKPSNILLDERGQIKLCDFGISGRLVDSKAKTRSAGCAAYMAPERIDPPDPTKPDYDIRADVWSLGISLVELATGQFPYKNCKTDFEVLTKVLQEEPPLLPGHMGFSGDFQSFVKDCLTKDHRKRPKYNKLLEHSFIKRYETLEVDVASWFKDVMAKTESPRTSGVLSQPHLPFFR
Method in brief: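 GST-MKK7 (42 nM) coated in Tris pH 7.5 buffer, 16 h, 4 °C; biotin-hGadd45β (21 nM) added with competitor peptides (0.01–100 nM), 1 h, 37 °C. Streptavidin-HRP/o-phenylenediamine read at 490 nm; binding expressed as % of signal without competitor.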

[3] = system: sh-NS-expressing ARH-77 cells
[4] = system: primary multiple myeloma cells; test: Trypan blue exclusion assay in primary multiple myeloma cells from patients; format: cell-based, human; settings: 1 μM or 10 μM, 48 hrs, 5 patients
Text: To confirm that Z-/mDTPs retain cytotoxic activity in primary multiple myeloma cells, we examined the effects of Z-DTP1 and Z-DTP2 on the survival of multiple myeloma cells isolated from patients with a clinical diagnosis of multiple myeloma. To this end, multiple myeloma cells were purified from bone marrow (BM) aspirates of multiple myeloma patients by […], using CD138-conjugated magnetic beads, essentially as described in the reference by Hideshima T. et all 2006, Blood 107: 4053-4062. The purity of multiple myeloma cells was confirmed by flow cytometric, using and CD138 and anti-CD45 antibodies, also essentially in accordance with the procedure described in the reference by Hideshima T. et all 2006, Blood 107: 4053-4062. Purified CD138^+ BM cells were then cultured at a concentration of 4×10^5 cells/ml in wells of 96-well plates and treated with either 1 μM or 10 μM of Z-DTP1, Z-DTP2 or Z-DNC for 48 hrs. Cell viability was measured by cell counting using trypan blue exclusion assays (FIGS. 14A, 14B, 14C, 14D, and 14E).

[5] = system: U266, KMS-11, NCI-H929, BJAB and U937 tumour cell lines; test: [3H]thymidine incorporation assay in tumour cell lines at 10 μM; format: cell-based, human; settings: up to 144 hrs, result in words
Procedure: All experiments were performed in triplicate.

[6] = Table V, FIG. 3C, read-out: IC50 ELISA

SMILES	IC50 [1] [nM]	IC50 [2] [nM]	IC50 [3] [nM]	cytotoxic activity in primary multiple myeloma cells [4]	tumoricidal/cytotoxic activity in tumour cell lines [5]	IC50 [2, 6] [nM]	IC50 ([2]; Table V, peptides 0.01-10 nM, read-out: IC50 ELISA) [nM]
CC(=O)N[C@H](Cc1ccc(O)cc1)C(=O)N[C@H](CCCNC(=N)N)C(=O)N[C@H](Cc1ccccc1)C(N)=O [Compound 17, Ac-D-Tyr-D-Arg-D-Phe-NH2] (Ac-[dY]-[dR]-[dF]-NH2)	> 10000	0.157	303	Strong cytotoxic activity	–	–	–
CC(=O)N[C@H](Cc1ccc(O)cc1)C(=O)N[C@H](CCC(=O)O)C(=O)N[C@H](CCCNC(=N)N)C(=O)N[C@H](Cc1ccccc1)C(N)=O [DTP2, Acetyl-(D-Tyr)-(D-Glu)-(D-Arg)-(D-Phe)-NH2] (Ac-[dY][dE][dR][dF]-NH2)	–	–	–	–	inactivity	0.19	–
CC(=O)N[C@H](Cc1ccc(O)cc1)C(=O)N[C@H](CC(=O)O)C(=O)N[C@H](Cc1c[nH]cn1)C(=O)N[C@H](Cc1ccccc1)C(N)=O [DTP1, Acetyl-(D-Tyr)-(D-Asp)-(D-His)-(D-Phe)-NH2] (Ac-[dY][dD][dH][dF]-NH2)	–	–	–	–	not	0.22	–
NC(=O)[C@@H](Cc1ccccc1)NC(=O)[C@@H](Cc1c[nH]cn1)NC(=O)[C@@H](CC(=O)O)NC(=O)[C@@H](Cc1ccc(O)cc1)NC(=O)OCc1ccccc1 [Compound 1, Z-Tyr-Asp-His-Phe-NH2] (Cbz-[dY][dD][dH][dF]-NH2)	> 10000	–	1400	strong cytotoxic activity	–	–	0.22
N=C(N)NCCC[C@@H](NC(=O)[C@@H](CCC(=O)O)NC(=O)[C@@H](Cc1ccc(O)cc1)NC(=O)OCc1ccccc1)C(=O)N[C@H](Cc1ccccc1)C(N)=O [Compound 9, Z-D-Tyr-D-Glu-D-Arg-D-Phe-NH2] (Cbz-[dY][dE][dR][dF]-NH2)	> 10000	–	302	strong cytotoxic activity	high cytotoxic activity	–	–
